{"source": "patent US20080255134A1", "about": "(Artesian Therapeutics, Inc., priority 2004, published 2008)", "key": {"[1]": {"target": "T1, human recombinant beta-2 receptors (Homo sapiens, UniProt P07550)", "T1 construct": "expressed in transfected cells; host or cells: CHO-WT21 cells", "T1 sequence (P07550 whole entry)": "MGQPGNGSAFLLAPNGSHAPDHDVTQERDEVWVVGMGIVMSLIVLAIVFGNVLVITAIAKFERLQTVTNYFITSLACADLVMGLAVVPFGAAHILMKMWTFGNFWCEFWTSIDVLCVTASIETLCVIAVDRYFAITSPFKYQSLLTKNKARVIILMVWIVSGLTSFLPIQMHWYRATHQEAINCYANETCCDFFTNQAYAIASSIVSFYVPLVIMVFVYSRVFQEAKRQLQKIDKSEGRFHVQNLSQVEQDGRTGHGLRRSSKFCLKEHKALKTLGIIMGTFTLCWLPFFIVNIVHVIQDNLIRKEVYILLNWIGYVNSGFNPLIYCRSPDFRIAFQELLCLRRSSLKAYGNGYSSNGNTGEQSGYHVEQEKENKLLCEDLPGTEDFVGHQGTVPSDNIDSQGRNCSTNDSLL", "experiment": "β2-receptor radioligand binding, [125I] iodocyanopindolol, CHO-WT21 cells", "protocol": "(§1) Non-selective β-adrenergic and β1-adrenergic radioligand binding assays were performed using rat cortical membranes; β2-adrenergic receptor assays were performed using membranes isolated from CHO cells expressing human, recombinant b2-adrenergic receptor; non-selective α1-adrenergic receptor assays were performed using rat forebrain membranes; and PDE3 binding assays were performed on human platelets. Values in percent illustrate percent inhibition at 1000 nM concentration."}, "[2]": {"target": "α1-adrenergic receptor", "experiment": "Non-selective α1-adrenergic receptor assay using rat forebrain membranes", "assay_type": "binding", "protocol": "as §1, with “The ability of Compounds 25 and 8c to inhibit PDE3 and β-adrenergic receptor activity was examined both in vitro and in vivo. […] Non-selective” for “Non-selective”"}, "[3]": {"tested_on": "White New Zealand male rabbits", "experiment": "In vivo β-adrenergic blockade, isoproterenol challenge (Protocol 1)", "design": "species or system rabbit", "protocol": "(§2) Studies were performed on White New Zealand male rabbits (2-3 kg weight). Animals were initially anesthetized with ketamine (50 mg/kg; IM) and xylazine (6 mg/kg, IM). Subsequently, animals were intubated (via tracheotomy; 3 mm tube) and ventilated with 2% isoflurane (mixed in 95% O2+5% CO2). Each rabbit was instrumented for LV pressure (3F Millar catheter) through right carotid artery, arterial pressure (3F catheter, Cook Instruments) through left femoral artery, which was connected to a fluid-filled pressure transducer (BD Instruments), and ECG. Both pressure transducers were zeroed against atmospheric pressure, and calibrated before each study using an analog manometer. Upon completion of instrumentation, isoflurane was reduced to 1.25%, and the animal was covered for maintenance of body core temperature. Arterial and LV blood pressures (LVP) and the ECG signals were simultaneously digitally recorded on a PC. The recording system (Gould Instruments) and the corresponding software (Ponema, Gould Instruments) facilitated detailed calculation of various parameters directly from all signals and record on a separate file with a 1 sec resolution. Upon completion of the study protocol, rabbits were euthenized by isoflurane overdose (5% for at least 1 minute) and cardiac arrest through IV infusion of 5 ml 3 molar potassium chloride.\n(§3) Once the physiological variables were stable, effects of each drug on hemodynamics and ECG were determined based on two different protocols: 1) infusion of a compound of the present invention to determine the effects of the compound itself mainly on contractility, and other hemodynamic indices; and 2) infusion of a compound of the present invention while the system was challenged with 0.5 ug/kg isoproterenol to determine the beta-adrenergic antagonism properties of each tested compound.\n(§4) White New Zealand male rabbits (2-3 kg) were anesthetized and ventilated (95% O2+5% CO2) with 1.25% isoflurane. Each animal was instrumented for LV pressure (Millar, through left carotid artery), arterial pressure (left femoral artery), infusion (jugular vein), and electrocardiogram. The animals were administered intravenously based on one of these protocols:\nProtocol 1: β-adrenergic blockade (isoproterenol challenge)."}, "[4]": {"target": "beta-receptors from rat cortical membranes", "experiment": "Non-specific β-receptor radioligand binding, [3H]DHA", "details": "read-out: Non-selective β-adrenergic IC50", "protocol": "as §1"}, "[5]": {"target": "T2, PDE3 (Homo sapiens, UniProt Q14432)", "T2 construct": "from tissue; host or cells: human platelets", "T2 sequence (Q14432 whole entry)": "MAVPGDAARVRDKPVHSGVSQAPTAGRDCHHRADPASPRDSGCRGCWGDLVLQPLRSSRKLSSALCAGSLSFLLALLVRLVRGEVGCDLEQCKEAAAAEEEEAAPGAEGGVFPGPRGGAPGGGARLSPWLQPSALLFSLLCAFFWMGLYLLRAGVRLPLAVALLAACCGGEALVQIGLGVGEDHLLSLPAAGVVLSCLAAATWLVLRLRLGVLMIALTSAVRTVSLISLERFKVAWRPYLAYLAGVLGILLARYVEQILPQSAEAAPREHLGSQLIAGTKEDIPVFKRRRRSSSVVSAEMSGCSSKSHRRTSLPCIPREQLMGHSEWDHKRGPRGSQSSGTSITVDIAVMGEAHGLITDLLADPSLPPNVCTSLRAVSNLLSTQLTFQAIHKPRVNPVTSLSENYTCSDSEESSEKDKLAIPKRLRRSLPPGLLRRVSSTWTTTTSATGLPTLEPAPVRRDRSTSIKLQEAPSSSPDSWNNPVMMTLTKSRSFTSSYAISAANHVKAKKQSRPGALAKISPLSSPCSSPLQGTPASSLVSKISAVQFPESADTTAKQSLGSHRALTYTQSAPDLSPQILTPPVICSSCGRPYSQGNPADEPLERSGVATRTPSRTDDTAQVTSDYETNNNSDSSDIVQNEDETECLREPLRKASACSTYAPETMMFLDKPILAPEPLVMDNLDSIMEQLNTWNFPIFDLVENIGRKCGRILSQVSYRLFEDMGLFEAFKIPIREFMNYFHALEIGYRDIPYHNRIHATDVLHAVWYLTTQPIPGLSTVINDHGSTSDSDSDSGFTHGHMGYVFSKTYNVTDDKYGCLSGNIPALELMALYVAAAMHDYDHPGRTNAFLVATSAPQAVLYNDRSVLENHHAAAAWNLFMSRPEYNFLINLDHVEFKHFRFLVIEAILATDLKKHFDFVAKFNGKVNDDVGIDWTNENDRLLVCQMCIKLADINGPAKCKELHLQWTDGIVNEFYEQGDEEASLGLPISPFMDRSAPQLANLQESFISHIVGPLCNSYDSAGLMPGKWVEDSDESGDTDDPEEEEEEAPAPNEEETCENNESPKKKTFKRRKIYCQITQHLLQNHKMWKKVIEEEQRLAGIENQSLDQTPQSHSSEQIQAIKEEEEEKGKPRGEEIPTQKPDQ", "experiment": "In vitro assay for cAMP PDE-3 inhibitory activity", "assay_type": "biochemical"}, "[6]": {"target": "T3, β1-adrenergic receptor (Rattus norvegicus, UniProt P18090)", "T3 construct": "from tissue; host or cells: rat cortical membranes", "T3 sequence (P18090 whole entry)": "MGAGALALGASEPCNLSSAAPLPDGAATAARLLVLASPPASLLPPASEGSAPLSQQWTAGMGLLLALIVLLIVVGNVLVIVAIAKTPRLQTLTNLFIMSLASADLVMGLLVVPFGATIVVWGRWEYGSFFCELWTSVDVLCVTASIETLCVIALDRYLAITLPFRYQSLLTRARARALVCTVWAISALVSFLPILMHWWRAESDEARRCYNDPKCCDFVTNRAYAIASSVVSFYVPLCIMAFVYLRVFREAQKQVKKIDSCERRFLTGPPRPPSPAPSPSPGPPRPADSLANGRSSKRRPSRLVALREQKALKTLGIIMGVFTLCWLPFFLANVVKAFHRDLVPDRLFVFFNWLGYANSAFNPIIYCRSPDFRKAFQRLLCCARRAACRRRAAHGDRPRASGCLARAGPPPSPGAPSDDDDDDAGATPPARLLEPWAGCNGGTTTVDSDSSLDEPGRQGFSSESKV", "experiment": "β1-adrenergic radioligand binding assay using rat cortical membranes", "protocol": "as §1"}, "[7]": {"tested_on": "naive anesthetized canines", "experiment": "Contractility in naive anesthetized canines (protocol 2)", "assay_type": "in vivo, canine", "details": "administered alone (protocol 2), FIG. 17"}, "[8]": {"tested_on": "human fetal cardiac fibroblasts", "experiment": "Cyclic-AMP production by fluorescence (intrinsic sympathomimetic activity)", "assay_type": "cell-based", "details": "IBMX (750 μM) present; compared to isoproterenol or forskolin; any concentration tested", "protocol": "The effect of Compound 8c on cyclic-AMP production was determined in human fetal cardiac fibroblasts by fluorescence, presented in FIG. 18 as [F−Fo)/Fo], mean±SEM, N=4. IBMX (750 μM) was present in all assays."}, "[9]": {"tested_on": "White New Zealand male rabbits", "experiment": "In vivo β-adrenergic blockade, isoproterenol challenge (Protocol 1)", "design": "species or system rabbit; dose or concentration left out as unconfirmed", "details": "during isoproterenol challenge, intravenous, FIG. 10"}, "[10]": {"tested_on": "White New Zealand male rabbits", "experiment": "In vivo hemodynamic effects of compounds administered alone (Protocol 2)", "design": "species or system rabbit", "protocol": "as §2, §3, §4\nProtocol 2: PDE3 inhibition (effects of compounds when administered alone)."}, "[11]": {"target": "T4, human recombinant beta-1 receptors (Homo sapiens, UniProt P08588)", "T4 construct": "expressed in transfected cells; host or cells: CHO-REX16 cells", "T4 sequence (P08588 whole entry)": "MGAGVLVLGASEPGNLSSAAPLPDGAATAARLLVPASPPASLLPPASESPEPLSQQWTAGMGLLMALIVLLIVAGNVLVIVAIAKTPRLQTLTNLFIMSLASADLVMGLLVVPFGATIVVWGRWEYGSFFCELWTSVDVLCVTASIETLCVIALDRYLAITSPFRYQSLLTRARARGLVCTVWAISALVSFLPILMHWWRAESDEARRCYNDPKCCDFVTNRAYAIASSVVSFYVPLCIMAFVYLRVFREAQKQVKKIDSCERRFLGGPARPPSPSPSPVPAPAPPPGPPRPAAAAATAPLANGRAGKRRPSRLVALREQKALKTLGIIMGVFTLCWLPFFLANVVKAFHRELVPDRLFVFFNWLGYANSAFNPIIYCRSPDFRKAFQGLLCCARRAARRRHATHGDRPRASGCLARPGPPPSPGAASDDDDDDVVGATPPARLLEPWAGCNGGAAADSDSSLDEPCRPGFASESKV", "experiment": "β1-receptor radioligand binding, [125I] iodocyanopindolol, CHO-REX16 cells", "details": "at 100 nM", "protocol": "[…] receptor binding was measured in human recombinant beta-1 receptors expressed in CHO-REX16 cells, using [^125I] (-) iodocyanopindolol (2000 Ci/mmol) as the radioligand, as described in Kalaria et al., J. Neurochem. 53: 1772-81 (1998), and Minneman et al., Mol. Pharmacol. 16: 34-46 (1979)."}, "[12]": {"details": "Compound 25 0.3 mg/kg, carvedilol 0.1 mg/kg, Protocol 1, FIG. 13"}}, "note": "pIC50: −log10 of the molar value. “Also recorded” adds a separate entry of the source. Where two headings read alike, the source gives them in different places.", "data": [{"smiles": "O=C1CCC(c2ccc(OCCNCC(O)COc3cccc4[nH]c5ccccc5c34)c(Cl)c2)=NN1", "note": "(racemic) [Compound 25, 6-(4-{2-[3-(9H-Carbazol-4-yloxy)-2-hydroxy-propylamino]-ethoxy}-3-chloro-phenyl)-4,5-dihydro-2H-pyridazin-3-one]", "values": [{"measurement": "inhibition at 0.1 µM", "setting": "[1]; at 100 nM", "result": "> 25", "unit": "%"}, {"measurement": "pIC50", "setting": "[1]; membranes from CHO cells expressing human recombinant β2-adrenergic receptor", "result": 9.00}, {"measurement": "pIC50", "setting": "[2]", "result": 6.46}, {"measurement": "contractility (LV+dP/dtmax) at ED50", "setting": "[3]; [12]", "result": "increased contractility"}, {"measurement": "mean arterial pressure (MAP) at ED50", "setting": "[3]; [12]", "result": "more potent decrease in mean arterial pressure (MAP) than carvedilol"}, {"measurement": "ED50", "setting": "[3]; Oryctolagus cuniculus, isoproterenol challenge (0.5 μg/kg), intravenous, read-out: ED50, dose that diminished isoproterenol-dependent increase in HR by 50%", "result": 0.3, "unit": "mg/kg"}, {"measurement": "relaxation properties (Tau) at ED50", "setting": "[3]; compared to control, Protocol 1, FIG. 13", "result": "did not change the relaxation properties (Tau)"}, {"measurement": "β-adrenergic antagonism on heart rate (HR)", "setting": "[3]; during isoproterenol challenge (0.5 μg/kg), FIG. 11", "result": "dose-dependent β-adrenergic antagonism"}, {"measurement": "pIC50", "setting": "[4]", "result": 8.52}, {"measurement": "pIC50", "setting": "[5]; human platelet cyclic AMP phosphodiesterase, bound stated, read-out: PDE3 inhibition IC50", "result": "> 6.00"}, {"measurement": "pIC50", "setting": "[5]; human platelet cyclic AMP phosphodiesterase, bound stated, read-out: PDE IC50 inhibition values", "result": "> 7.00"}, {"measurement": "pIC50", "setting": "[5]; human platelets, read-out: PDE3 IC50", "result": 7.72}, {"measurement": "pIC50", "setting": "[6]", "result": 8.70}, {"measurement": "contractility in naive anesthetized canines", "setting": "[7]", "result": "increased contractility in a dose-dependent manner"}, {"measurement": "intrinsic sympathomimetic activity (cyclic-AMP production)", "setting": "[8]", "result": "neither Compound 8c nor Compound 25 possessed intrinsic sympathomimetic activity"}, {"measurement": "β-adrenergic antagonism on left ventricular contractility", "setting": "[9]", "result": "potent dose-dependent β-adrenergic antagonism"}, {"measurement": "heart rate when administered alone", "setting": "[10]; Protocol 2, with and without atropine and bilateral vagotomy (FIG. 16)", "result": "minimal effect on heart rate; also recorded: did not increase heart rate"}, {"measurement": "left ventricular contractility when administered alone", "setting": "[10]; protocol 2, relative to control, FIGS. 2, 12", "result": "increased or maintained contractility in a dose-dependent manner"}, {"measurement": "inhibition at 0.1 µM", "setting": "[11]", "result": "> 25", "unit": "%"}]}]}
